Measured values as given in patent publication US4526888A, “Nephrotoxicity inhibitors for aminoglycoside antibiotics” (Bristol-Myers Company, priority 1983, dated 1985).
Values joined by “and” are separate entries in the source; they are usually repeats but may differ in a detail not shown here. Equal entries are not always repeated. Where two headings read alike, the source gives them in different places.

Tests used:
[1] = test system: rats; details: rat, in vivo
Text: (§1) A fourteen (14) day subacute nephrotoxicity model in rats was utilized to test the in vivo efficacy of aminoglycoside-transport inhibitor combinations. […] Though blood urea nitrogen (BUN) was monitored as a clinical parameter of renal function, the primary evaluation of nephrotoxicity in this model involves histopathologic examination of renal tissue, which is a more accurate and sensitive method for assessing nephrotoxicity [Hottendorf et al., Antimicrob.
(§2) Male Sprague-Dawley rats [Charles River Breeding Laboratories, Inc., (CRL: COBS CD (SD) BR)] approximately 6 weeks old and weighing 140-160 gms upon arrival were used. They were conditioned for at least 5 days prior to the start of the study. Only animals found to be clinically healthy were selected. Rats were identified individually by number on the tail with black marking pens. During the study the rats were housed individually in cages of the appropriate size and type in a temperature-controlled room. Rodent Laboratory Chow (pellet, Purina Ralston Company) and water was offered ad libitum.
(§3) The aminoglycoside and aminoglycoside-inhibitor mixtures were administered subcutaneously twice daily for 14 days.
(§4) All rats were euthanized by an overdose of sodium pentobarbital on study Day 15.
(§5) The kidneys were removed and examined grossly. A longitudinal section of the left kidney and a cross section of the right kidney from each rat were preserved in 10% neutral buffered Formalin for histopathological evaluation. Tissue sections (6 μm each) were stained with hematoxylin and eosin, and the resulting tissue slides were randomized, masked, and examined by a single pathologist without knowledge of the animal's treatment.
(§6) Lesions encountered in the renal cortex included tubular vacuolar or granular degeneration, peritubular inflammation, tubular necrosis, tubular dilatation, tubular basophilia, and interstitial fibrosis. The extent and distribution of each of these lesions in both kidneys of every rat were scored as follows: 0, absence of lesion; 1, lesion represented in fewer than 10% of the nephrons; 2, lesion represented in 10 to 50% of the nephrons; 3, lesion represented in 50 to 90% of the nephrons; and 4, lesion represented in more than 90% of the nephrons. Since these lesions are all interrelated and represent various stages of proximal tubular damage, the lesion scores were summed to produce a single nephrotoxicity response for each animal, with a possible severity range of 0 to 24.
(§7) Nephrotoxicity was monitored by blood urea nitrogen (BUN) analysis and histopathologic examination of renal tissue.
(§8) Aminoglycosides and aminoglycoside-inhibitor mixtures were administered subcutaneously twice daily for fourteen days.
(§9) All rats were euthanized by an overdose of sodium pentobarbital on study Day 15. The kidneys were removed, examined grossly and placed in 10% neutral buffered formalin for subsequent histopathologic evaluation.

[2] = test system: rats; test: Fourteen day subacute nephrotoxicity model in rats, histopathologic examination of renal tissue; details: for in vivo nephroprotective activity (in words): summary of Table III
Text: as §1, §2, §3, §4, §5, §6, §7, §8, §9

[3] = test system: renal brush border membranes of proximal tubule cells; test: In vitro gentamicin transport inhibition, isolated renal brush border membrane vesicles; format: biochemical; details: 3H-gentamicin transport, rat renal brush border membrane vesicles, 30 second incubation; multiple of aminoglycoside molar concentration
Text: An in vitro screening program was established to study the selective inhibition of aminoglycoside transport across renal brush border membranes of proximal tubule cells. The screening tests employed isolated, purified brush border membrane as described by Kinsella et al., Biochem. Biophys. Acta., 552: 468-477 (1979) and Williams et al., Tox. Applied Pharmacol., 61: 243-251 (1981), comprising isolation and purification of rat renal cortical membranes via differential centrifugation, cationic precipitation and discontinuous sucrose gradient techniques. […] The transport was quantified by liquid scintillation techniques as described by Kinsella et al., J. Pharmacol. Exp. Ther., 209: 443-450 (1979). Gentamicin transport was characterized, FIG. 1, as to time and concentration dependency, and as to specificity. Gentamicin transport was then measured at a fixed concentration of gentamicin (0.5 mM) in the presence of prospective inhibitors at 5X molar concentration. […] The reaction media was then vacuum filtered on 0.3 micron Millipore filters. The filters were washed twice with 2 ml of the buffer and removed and counted using liquid scintillation spectroscopy techniques. […] The inhibitors were solubilized in the above-described buffer.

[4] = multiple of AG dose: Molar 0.1 (Mg 0.7 Lysine20, 2 Asparagine90)
[5] = multiple of AG dose: Molar 0.3 (Mg 15 Lysine10, 10 Aspartic acid90, 6 Asparagine90)
[6] = multiple of AG dose: Molar 1 (Mg 15 Glutamic acid60, 20 Asparagine90)

In the case of `NCC[C@H](O)C(=O)N[C@@H]1C[C@H](N)[C@@H](O[C@H]2O[C@H](CN)[C@@H](O)[C@H](O)[C@H]2O)[C@H](O)[C@H]1O[C@H]1O[C@H](CO)[C@@H](O)[C@H](N)[C@H]1O.O=S(=O)(O)O.O=S(=O)(O)O` [AMIKACIN, amikacin sulfate], the “nephrotoxicity in this test (conclusion in words)” value [1] is reported as “demonstrates the nephrotoxicity of amikacin”.

For `O=S(=O)([O-])CO.[Na+]` [Sodium formaldehyde bisulfite], the “Nephroprotective Activity” value ([2]; multiple of AG dose: Molar 136, Mg 40) was “+ (less than 50% reduction)” and the “I50 (molar multiples producing 50% transport inhibition)” value [3] was 10 X.

In the case of `NCCCNCCCCNCCCN` [Spermine], the “I50 (molar multiples producing 50% transport inhibition)” value [3] is reported as 3 X.

Poly-l-asparagine90 was tested, and the “Nephroprotective Activity” value [2, 4] was “+ (less than 50% reduction)”, the “Nephroprotective Activity” value ([2]; multiple of AG dose: Molar 0.15, Mg 3) was “+ (less than 50% reduction)” and the “Nephroprotective Activity” value [2, 5] was “+ (less than 50% reduction)”. The “Nephroprotective Activity” value ([2]; multiple of AG dose: Molar 0.5, Mg 10) was “+++ (reduction 100%)”, the “Nephroprotective Activity” value [2, 6] was “+++ (reduction 100%)” and the “in vivo nephroprotective activity (in words)” value [2] was “greatest degree of in vivo nephroprotective activity”. For the same molecule, the “I50 (molar multiples producing 50% transport inhibition)” value [3] was 0.1 X.

Poly-l-aspartic Acid90 was tested, and the “Nephroprotective Activity” value [2, 5] was “+++ (reduction 100%)”, the “in vivo nephroprotective activity (in words)” value [2] was “greatest degree of in vivo nephroprotective activity” and the “I50 (molar multiples producing 50% transport inhibition)” value [3] was under 0.1 X.

With Poly-l-glutamic Acid60 the “Nephroprotective Activity” value [2, 6] was 0 and the “I50 (molar multiples producing 50% transport inhibition)” value [3] was under 0.1 X.

In the case of Poly-l-lysine10, the “Nephroprotective Activity” value [2, 5] is reported as 0 and the “I50 (molar multiples producing 50% transport inhibition)” value [3] is reported as 1 X.

Tetralysine [Lysine4] was tested, and the “Nephroprotective Activity” value ([2]; multiple of AG dose: Molar 16, Mg 25) was 0 and the “I50 (molar multiples producing 50% transport inhibition)” value [3] was 10 X.

With gentamicin sulfate [GENTM] the “Histopath. Score (TOTAL), group value below animal scores” value ([2]; Example II Group II, gentamicin 10 mg/kg sc twice daily 14 days) was 4.2, the “Histopath. Score (TOTAL), individual animal” value ([2]; Example II Group II, gentamicin 10 mg/kg sc twice daily 14 days, Day 15, range 0 to 24) was 1 and 5 and 6 and 4 and the “Histopath. Score (TOTAL), group value below animal scores” value ([2]; Example II Group III, gentamicin 20 mg/kg) was 4.8. The “Histopath. Score (TOTAL), individual animal” value ([2]; Example II Group III, gentamicin 20 mg/kg sc twice daily 14 days) was 4 and 3 and 5 and 8, the “Histopath. Score (TOTAL), group value below rat scores” value ([2]; Example III Group II, gentamicin 20 mg/kg) was 8.8 and the “Histopath. Score (TOTAL), individual rat” value ([2]; Example III Group II, gentamicin 20 mg/kg sc twice daily fourteen days) was 8 and 9 and 10. The “nephrotoxicity in this test (conclusion in words)” value ([2]; aminoglycoside alone groups) was “demonstrates the nephrotoxicity of gentamicin” and the “dose necessary to elicit a significant and reproducible nephrotoxic response” value ([2]; bid, 14 days, rats) was 20 mg/kg/day.

polylysine20 was tested, and the “Nephroprotective Activity” value [2, 4] was “+ (less than 50% reduction)”, the “in vivo nephroprotective activity (in words)” value [2] was “showed any nephroprotective activity” and the “I50 (molar multiples producing 50% transport inhibition)” value [3] was 0.05 X.
